Values after ≈ are worked out from the molar mass of the structure shown. Bounds are passed on as bounds.

The source of these data is PMC12394552, “Multi-biological activity evaluation of Sn(П), Zn(П) and Fe(П) complexes based on thiocarbohydrazide schiff bases: synthesis, spectroscopic investigations and fluorescence studies” (Scientific Reports, 2025).

The subject of assay [1] is PANC1 pancreatic cell line. Nature of the assay: SRB antiproliferative assay. The format is cell-based, human. As to conditions: Homo sapiens, PANC-1, 72 h, read-out: Cytotoxicity (as of %control) IC50 value, PANC1. Here is the method: (§1) All malignancy cell lines were cultured in high glucose DMEM (Bio Whittaker, Verviers, Belgium) containing 10% FBS, 4-(2-hydroxyethyl)-1-piperazineethanesulfonic acid (HEPES) Buffer (10 mM), L-glutamine (2 mM), gentamicin (50 µg/mL), penicillin (100 U/mL), and streptomycin sulfate ([…]) from Sigma (St. Luis, MO, USA) whereas Sulforhodamine B was from Santa Cruz Biotechnology (Inc. Texas, USA). Surviving cancer cell lines provide numerous advantages; they provide a pure and continuous supply of cells, thus overcoming any ethical barriers concerning human tissue usage, and are cost-effective. For cytotoxicity screening, adherent monolayers of all procured malignancies’ cell lines were examined. Periodontal ligament fibroblasts (PDL) were used to determine selective cytotoxicity.

Assay [2] relates to MDA-MB-231 invasive mammary malignancy. Nature of the assay: SRB antiproliferative assay. Conditions: Homo sapiens, MDA-MB-231, 72 h, read-out: Cytotoxicity (as of %control) IC50 value, MDA-MB-231 invasive mammary malignancy. The class given is cell-based, human. Here is the method: as §1
(In general: The SRB assay estimates cell density from bound dye.)

Assay [3] has as its system SW480 colorectal cancer cell line. Nature of the assay: SRB antiproliferative assay. The class given is cell-based, human. Conditions: Homo sapiens, SW480, 72 h; read-out: Cytotoxicity (as of %control) IC50 value, SW480. Here is the method:
as §1

Another assay concerns RAW 264.7 macrophages. Nature of the assay: SRB cytotoxicity on RAW 264.7 viability. The class given is cell-based. As to conditions: Mus musculus, RAW264.7, read-out: RAW 264.7 viability IC50 value. Here is the method: as §1
RAW 264.7 mouse macrophage cell line (ATCC® TIB-71) were cultured in high glucose DMEM supplemented with 10% (FBS), penicillin (100 U/mL), streptomycin (100 µg/mL), and L-glutamate (100 µg/mL) in a 37 °C humidified atmosphere with 95% air and 5% CO2. Confluent macrophages (2 × 10^5/well) were incubated with inflammation-priming lipopolysaccharide (LPS; Sigma, St. Luis, MO, USA) with either indomethacin as the reference agent[39] or treatment compounds at different concentrations (1.563-200 µM). Griess reagent was mixed with aliquots of cell culture media and incubated at R.T. for 10 min. Absorbance at 550 nm was determined using a microplate reader (Spectro Scan 80D UV-VIS spectrophotometer (Sedico Ltd., Nicosia, Cyprus). The nitrite concentration was determined by comparison with a sodium nitrite standard curve. SRB cytotoxicity protocol was performed for evaluation of the effect of the studied test compounds on RAW 264.7 viability.

The subject of assay [4] is Candida albicans ATCC10231. In words: MIC determination, broth microdilution, absorbance 530 nm. The class given is cell-based. Conditions: ATCC10231, 24 h, read-out: C. albicans MIC value at 50% inhibition. Here is the method:
The compounds were tested against Gram-positive bacteria (Staphylococcus aureus ATCC 6538), Gram-negative bacteria (Escherichia coli ATCC 8739) and yeast (Candida albicansATCC10231). […] For bacterial strains, the EUCAST (2025) method was adapted. A few colonies of each bacterial culture previously grown on Mueller-Hinton agar for 24–48 h were suspended in normal saline and adjusted to 0.5 McFarland (1.5 × 10^8 CFU/mL). A 1/10 dilution was prepared in Mueller-Hinton broth (MHB) for the inoculation. In the wells of a 96-well flat-bottom microtiter plate, double serial dilutions of each compound were prepared in MHB. Each well was inoculated with the bacteria to achieve ca. 5 × 10^5 CFU/mL, and the plates were incubated at 37 °C overnight. Positive control (bacteria in culture medium only) and negative control (culture medium) were prepared. Each compound was tested in duplicate. After incubation, the plates were inspected visually for growth inhibition. To test the antimicrobial activity of DMSO, double serial dilutions of DMSO in broth medium were prepared and processed as the samples, but without the addition of the compounds. The antibacterial drug ciprofloxacin was used as a reference for comparison.
For Candida albicans, the same procedure applied to bacteria was used, except after inoculation, the plates were incubated at 35 °C for 24 h, and after incubation, the absorbance was measured at 530 nm using a plate reader. […] The absorbance of the wells was corrected by subtracting the absorbance of the blank. […] The antifungal drug fluconazole was used as a reference for comparison.

A word on the IC50: it is the midpoint of a concentration-inhibition curve. Broadly, the MIC is the lowest concentration that inhibits growth of the organism. Take `COc1ccc(/C=N/NC(=S)N/N=C/c2ccc(OC)cc2)cc1` [L2, 1,5-bis (4-methoxyanisaldehyde) thiocarbohydrazine]: the IC50 in assay [1] was more than 200 µM; in assay [2], more than 200 µM; in assay [3], 51.6 ± 3.07 µM; in the assay with RAW 264.7 macrophages it was more than 200 µM. Also, the minimum inhibitory concentration (MIC) in assay [4] was 31.3 µg/mL (≈ 91.4 µM).
